From patent US20100316677A1, “USE OF BAMBOO LEAF TOTAL FLAVONES IN THE PREPARATION OF MEDICINE AND HEALTH FOOD FOR PREVENTION AND TREATMENT OF PROSTATIC DISEASES” (ZHEJIANG UNIVERSITY (HANGZHOU) LEAF BIO-TECHNOLOGY CO., LTD., priority 2003, published 2010)

Assays:
[1] = tested on: prostatic hyperplasia caused by testosterone propionate; experiment: prostatic hyperplasia caused by testosterone propionate; assay type: in vivo, ICR mice; conditions: testosterone propionate mice, 0.5 mg/kg sc once every 3 days, 5 times
Method: Randomly assign ICR mice, male, body weight 18-21g, into 7 groups, 10-11 mice in each group: (1) controlled group: water of equal volume, 0.8 mL/20 g, ig; (2) model group: 0.8 mL/20 g water of equal volume, ig; (3) estradiol group: estradiol 0.5 mg/kg, sc, once every 3 days, for 5 times; (4) high-dose group: EOB-f01 400 mg/kg ig; (5) moderate-dose group: EOB-f01 200 mg/kg, ig; (6) low-dose group: EOB-f01 100 mg/kg, ig. Once per day, for 14 days. Except the controlled group (1), various groups (2)-(6) with testosterone propionate 5 mg/mL per day, sc, for 14 d. On the fifteenth day, sacrifice the mice, anatomize them, take and weigh the abdominal, side, and back parts of the prostate, and evaluate anti-hyperplasia effects of EOB-f01.

[2] = tested on: growth of the prostate and accessorial sex organs; experiment: growth of the prostate and the accessorial sex organs of young mice; assay type: in vivo, ICR young male mice; conditions: 0.5 mg/kg sc once every 3 days, 5 times
Method: Assign ICR young male mice, body weight 10-12 g, into groups according to their body weight, 10-11 mice in each group: (1) controlled group: water of equal volume, 0.8 mL/20 g, ig; (2) estradiol group: estradiol 0.5 mg/kg, sc, once every 3 days, for 5 times; (3) high-dose group: EOB-f01 400 mg/kg, ig; (4) moderate-dose group: EOB-f01 200 mg/kg, ig; (5) low-dose group: EOB-f01 100 mg/kg, ig. Once per day, for 14 days. On the fifteenth day, sacrifice the mice, anatomize and weigh the abdominal, side, and back parts of the prostate, and seminal vesicle, testis, and elevator ani muscle.

[3] = tested on: swelling of ear auricle caused by croton oil; experiment: swelling of ear auricle of mice caused by croton oil; assay type: in vivo; conditions: 10 mg/kg ig once, blank control 19.8 ± 2.9
Method: Randomly assign mice into 5 groups, 12 mice in each group, as follows: (1) Blank-controlled group: saline of equal volume, 0.8 mL/20 g; (2) Positive-controlled group: indomethacin 10 mg/kg; (3) High-dose group: 10 mg/mL EOB-f01, 400 mg/kg; (4) moderate-dose group: 5 mg/mL EOB-f01, 200 mg/kg; (5) Low-dose group: 2.5 mg/mL EOB-f01, 100 mg/kg. The animals received the administration through gastric irrigation (ig). once per day for 7 continuous days (for indomethacin, only once); in 1 h after the final dose, smear the right ear of the mice with 2% croton oil, 0.02 ml/mouse, cause inflammation, sacrifice them after 4 h, shear away their left and right ears, punch down their left and right ear slice with 9 mm trephine, and weigh them, taking the difference of weights between left and right ear slices as the swelling rate.

[4] = tested on: swelling of ear auricle caused by xylene; experiment: swelling of ear auricle of mice caused by xylene; assay type: in vivo; conditions: 10 mg/kg ig once, blank control 11.4 ± 4.9
Method: Assign the mice into 5 groups according to their body weight, 10 mice in each group, as 2.1 section. Give the mice once per day through gastric irrigation (ig), for 7 days (indomethacin, given only once); in 30 min after the final dose, smear the right ear of the mice with xylene, 0.05 ml/mouse, cause inflammation, sacrifice them in 15 min, shear away their left and right ears, punch down their left and right ear slice with 9 mm trephine, and weigh them, taking the difference of weights between left and right ear slices as the swelling rate. Judge the effects compared with those of the controlled groups.

[5] = tested on: prostatitis caused by carrageenan; experiment: prostatitis caused by carrageenan (prostate weight, histopathology); assay type: in vivo, SD male rats; conditions: carrageenan rats
Method: […] Give the rats through gastric irrigation once per day, for 7 days (indomethacin, only once prior to operation), and begin the operation in 0.5 h after the final dose.
Conduct anesthesia for the rats, then fix them in supine position, shear off hair at their abdomen, and sterilized by iodine tinture; under sterilized condition, cut 1.5 cm at the center of their abdomen, expose the abdominal part of prostate, inject rats in (2)-(6) groups with 1% carrageenan saline, 0.02 mL/rat, with No. 4.5 syringe, immediately return the prostate to the abdominal cavity, add 1 drop of penicillin in the abdominal cavity, and immediately suture the abdominal cavity by two-layer ways. Replace carrageenan with saline 0.02 mL/rat, for rat in the controlled group (1), and conduct pseudo-operation. In 4 h after operation, sacrifice the rats, anatomize and separate each part of the prostate, weigh wet weight, and compare swelling extents between the dose groups and the model group. Take the abdominal part of the prostate of rats, fix with 10% formalin, dehydrate routinely, imbedded with paraffin, slice up, conduct HE staining, and observe pathological changes under a microscope.
Observation criteria for pathology of prostatic tissue from rats of each group: (1) Score of stroma swelling or blood vessel hyperemia: no stroma swelling or blood vessel hyperemia, 0; mild stroma swelling or blood vessel hyperemia, 1; moderate stroma swelling or blood vessel hyperemia, 2; severe stroma swelling or blood vessel hyperemia, 3; (2) Score of infiltration of inflammatory cells: no stroma inflammatory cells, 0; small amount of stroma inflammatory cells, 1; moderate amount of stroma inflammatory cells, 2; high amount of stroma inflammatory cells, 3; stroma diffuse inflammatory cells, 4.

Structure (SMILES) | Prostate weights, Back part ([1]; model 7.8 ± 1.8) [mg] | Prostate weights, Abdominal part ([1]; model 11.3 ± 2.8) [mg] | Prostate weights, Side part ([1]; model 23.6 ± 6.2) [mg] | Prostate weights, Back part ([2]; blank control 4.2 ± 1.5) [mg] | Prostate weights, Abdominal part ([2]; blank control 6.7 ± 1.1) [mg] | Prostate weights, Side part ([2]; blank control 9.6 ± 3.3) [mg] | Seminal vesicle ([2]; organ weight, blank control 34.1 ± 11.3) [mg] | Elevator ani muscle ([2]; organ weight, blank control 42.5 ± 10.6) [mg] | Testis ([2]; organ weight, blank control 151.3 ± 28.2) [mg] | Swelling rate of ear auricle [3] [mg] | Swelling rate of ear auricle [4] [mg] | Prostate weights, Side part ([5]; 12 mg/kg ig once, model 73.3 ± 17.3) [mg] | Prostate weights, Back part ([5]; 12 mg/kg ig once, model 122.1 ± 23.3) [mg] | Prostate weights, Abdominal part ([5]; 12 mg/kg ig once, model 466.5 ± 79.1) [mg] | Degree of dilation or swelling of stroma blood vessels ([5]; score 0-3, abdominal part of prostate, 10 mg/kg, model 2.6 ± 0.5) | Degree of infiltration of neutrophils ([5]; score 0-4, abdominal part of prostate, 10 mg/kg, model 2.6 ± 1.3)
C[C@]12CC[C@@H]3c4ccc(O)cc4CC[C@H]3[C@@H]1CC[C@@H]2O [Estradiol, estradiol] | 5.1 ± 1.6 | 7.0 ± 1.7 | 15.1 ± 2.7 | 1.1 ± 0.9 | 1.7 ± 0.5 | 1.5 ± 1.3 | 7.3 ± 2.5 | 14.1 ± 3.3 | 58.0 ± 12.8 |  |  |  |  |  |  | 
COc1ccc2c(c1)c(CC(=O)O)c(C)n2C(=O)c1ccc(Cl)cc1 [Indomethacin, indomethacin] |  |  |  |  |  |  |  |  |  | 14.8 ± 5.1 | 6.4 ± 2.3 | 62.0 ± 12.3 | 128.6 ± 20.9 | 358.1 ± 79.2 | 2.1 ± 2.0 | 2.2 ± 1.3
